We go through 13 molecules from patent US4877795A, “4H-quinolizin-4-one compounds useful for the treatment of allergic bronchial asthma, allergic rhinitis atropic dermatitis and the like” (Kissei Pharmaceutical Co., Ltd., priority 1987, dated 1989).

One assay concerns IgE. Description: Determination of Igs produced in in vitro culture: inhibition of IgE secreted by spleen cells (adoptive secondary immune response to DNP-As), ELISA. It counts as cell-based, BALB/c mice. The note with it: 4 days culture; for inhibition at 2.5 µg/mL: 2.5 μg/ml; for inhibition at 10 µg/mL: 10.0 μg/ml; for inhibition at 1 µg/mL / Inhibition % of IgE: 1.0 μg/ml. An outline of the steps: (§1)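 Donor BALB/c mice primed i.p. with 5 μg DNP-As on alum; 5×10^7 spleen cells transferred i.v. into 600-rad-irradiated recipients, boosted likewise. After 4 weeks, recipient spleen cells (5×10^6 cells/ml) cultured ± compound 4 days at 37° C; secreted IgG/IgE quantified by ELISA, % inhibition vs untreated culture.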
For orientation: An ELISA detects its analyte on a solid surface through an enzyme-linked reagent.

The next assay deals with IgG. Briefly: Determination of Igs produced in in vitro culture: inhibition of IgG secreted by spleen cells (adoptive secondary immune response to DNP-As), ELISA. It counts as cell-based, BALB/c mice. The note with it: 4 days culture; for inhibition at 2.5 µg/mL: 2.5 μg/ml; for inhibition at 10 µg/mL: 10.0 μg/ml; for inhibition at 1 µg/mL / Inhibition % of IgG: 1.0 μg/ml. An outline of the steps: as §1

In general, inhibition refers to the change of the read-out against control, counted positive when it falls. With `CSc1c(C#N)c(=O)n2ccccc2c1C(=O)Cc1cccc(C)c1` [S-97, 3-Cyano-1-(3-methylphenylacetyl)-2-methylthio-4H-quinolizin-4-one], the inhibition at 2.5 µg/mL was 46% in the assay with IgE (Mus musculus, 96 h) and 18% in the assay with IgG (Mus musculus, 96 h).

`CSc1c(C#N)c(=O)n2ccccc2c1C(=O)Cc1ccccc1C` [S-98, 3-Cyano-1-(2-methylphenylacetyl)-2-methylthio-4H-quinolizin-4-one]: the inhibition at 10 µg/mL in the assay on IgE (Mus musculus, 96 h) is 38%; in the assay on IgG (Mus musculus, 96 h), 13%.

`CSc1c(C#N)c(=O)n2ccccc2c1C(=O)Cc1ccc(C)cc1` [S-99, 3-Cyano-1-(4-methylphenylacetyl)-2-methylthio-4H-quinolizin-4-one]: the inhibition at 10 µg/mL stood at 52% with IgE (Mus musculus, 96 h) and 1% in the assay with IgG (Mus musculus, 96 h).

Turning to `CSc1c(C#N)c(=O)n2ccccc2c1C(=O)Cc1ccc(C)cc1C` [S-100, 3-Cyano-1-(2,4dimethylphenylacetyl)-2-methylthio-4H-quinolizin-4-one], the inhibition at 2.5 µg/mL is 63% in the assay with IgE (Mus musculus, 96 h) and 34% in the assay with IgG (Mus musculus, 96 h).

For `CSc1c(C#N)c(=O)n2ccccc2c1C(=O)Cc1ccc(C)c(C)c1` [S-101, 3-Cyano-1-(3,4-dimethylphenylacetyl)-2-methylthio-4H-quinolizin-4-one], the inhibition at 40 µg/mL with IgE (Mus musculus, 96 h, 40.0 μg/ml) is 58%; with IgG (Mus musculus, 96 h, 40.0 μg/ml), 13%.

For the molecule `COc1ccc(CC(=O)c2c(SC)c(C#N)c(=O)n3ccccc23)cc1` [S-102, 3-Cyano-1-(4-methoxyphenylacetyl)-2-methylthio-4H-quinolizin-4-one], the inhibition at 10 µg/mL is 52% in the assay with IgE (Mus musculus, 96 h) and 20% in the assay on IgG (Mus musculus, 96 h).

`CSc1c(C#N)c(=O)n2ccccc2c1C(=O)Cc1cccc2ccccc12` [S-103, 3-Cyano-2-mehtylthio-1-(1-naphthylacetyl)-4H-quinolizin-4-one]: the inhibition at 2.5 µg/mL is 49% in the assay with IgE (Mus musculus, 96 h) and 15% with IgG (Mus musculus, 96 h).

Consider `CSc1c(C#N)c(=O)n2ccccc2c1C(=O)CCc1ccccc1` [S-104, 3-Cyano-2-methylthio-1-(3-phenylpropionyl)-4H-quinolizin-4-one], for which the inhibition at 2.5 µg/mL in the assay with IgE (Mus musculus, 96 h) was 66%; in the assay on IgG (Mus musculus, 96 h) it was 39%.

In the case of `CSc1c(C#N)c(=O)n2ccccc2c1C(=O)CCCc1ccccc1` [S-105, 3-Cyano-2-methylthio-1-(4-phenylbutyryl)-4H-quinolizin-4one], the inhibition at 1 µg/mL in the assay on IgE (Mus musculus, 96 h) was determined as 65%; in the assay on IgG (Mus musculus, 96 h) it was 21%.

With `CSc1c(C#N)c(=O)n2ccccc2c1C(=O)CCCc1cccs1` [S-106, 3-Cyano-2-methylthio-1-(4-thienylbutyryl)-4H-quinolizin-4-one], in the assay on IgE, the “Inhibition % of IgE” value came out at 61%. For the same molecule, the “Inhibition % of IgG” value in the assay on IgG turned out to be 26%.

As to `CSc1c(C#N)c(=O)n2ccccc2c1C(=O)CCCCc1ccccc1` [S-107, 3-Cyano-2-methylthio-1-(5-phenylvaleryl)-4H-quinolizin-4-one], the inhibition at 1 µg/mL in the assay with IgE (Mus musculus, 96 h) was determined as 80%; in the assay on IgG (Mus musculus, 96 h) it was 43%.

Take `CSc1c(C#N)c(=O)n2ccc(C)cc2c1C(=O)CCCCc1ccccc1` [S-108, 3-Cyano-8-methyl-2-methylthio-1-(5-phenylvaleryl)-4H-quinolizin-4-one]: the inhibition at 1 µg/mL is 60% in the assay on IgE (Mus musculus, 96 h) and 35% with IgG (Mus musculus, 96 h).

Regarding `CSc1c(C#N)c(=O)n2ccccc2c1C(=O)CC1CCN(c2ccccc2)CC1` [S-109, 3-Cyano-2-methylthio-1-(1-phenyl-4-piperidylacetyl)-4-quinolizin-4-one], the “Inhibition % of IgE” value in the assay on IgE is 77%. For the same molecule, the “Inhibition % of IgG” value in the assay with IgG stood at 54%.
